Read-outs that look alike come from different tables or passages of the source.
Tested on: Pyricularia oryzae
Type: in vivo
Conditions: individual active compound, rice seedlings cultivar Tai-Nong 67, protective spray, evaluated 6 days after inoculation

SMILES	Efficacy in % of the untreated control (1 ppm in the spray liquor)	Efficacy in % of the untreated control (0.25 ppm in the spray liquor)	Efficacy in % of the untreated control (4 ppm in the spray liquor)
CC1CCN(c2c(-c3c(F)cccc3Cl)c(Cl)nc3ncnn23)CC1 [A]	11%		
C[C@H](Nc1c(-c2c(F)cc(F)cc2F)c(Cl)nc2ncnn12)C(F)(F)F [B]	22%		
CC1CCN(c2c(-c3c(F)cc(F)cc3F)c(Cl)nc3ncnn23)CC1 [I, 5-chloro-7-(4-methylpiperidin-1-yl)-6-(2,4,6-trifluorophenyl)-[1,2,4]triazolo[1,5-a]pyrimidine]	11%		
COc1ccc(C(=CC(=O)N2CCOCC2)c2ccc(Cl)cc2)cc1OC [IIa, 3-(4-chlorophenyl)-3-(3,4-dimethoxyphenyl)-1-morpholin-4-ylpropenone]		0%	0%
COc1ccc(C(=CC(=O)N2CCOCC2)c2ccc(F)cc2)cc1OC [IIb, 3-(4-fluorophenyl)-3-(3,4-dimethoxyphenyl)-1-morpholin-4-ylpropenone]		0%	0%

Reference: patent publication US20060154927A1 (priority 2003, published 2006)
